According to article PMC9782297, “Integracides: Tetracyclic Triterpenoids from Fusarium sp.—Their 5-Lipoxygenase Inhibitory Potential and Structure–Activity Relation Using In Vitro and Molecular Docking Studies” (Life, 2022):

These molecules were tested against 5-LOX (5-lipoxygenase) (assay: 5-Lipoxygenase inhibitory assay). Conditions: conc. 0.001, 0.01, 1.0 and 10 µM; zileuton positive control; read-out: 5-LOX inhibition IC50.
Format: biochemical
Experimental: Optical rotation was estimated using a 341LC Perkin-Elmer polarimeter (Perkin-Elmer, Waltham, MA, USA). UV and IR were assessed employing Shimadzu UV/VIS 1601 and IR-400 spectrophotometers (Shimadzu, Kyoto, Japan), respectively. Orbitrap LTQ (ThermoFinnigan, Bremen, Germany) and 850 INOVA BRUKER (Bruker BioSpin, Billerica, MA, USA) were utilized for HRESIMS and NMR measuring. The chromatographic investigation was achieved utilizing SiO260/Sephadex LH-20/RP-18, in addition to a 6-mL RP-18 LiChrolut extraction tube (Merck/Darmstadt/Germany).
IC50s were estimated by regression analysis (GraphPad-InStat 3, GraphPad Software, San Diego, CA, USA). The % 5-LOX inhibition of and IC50s are listed as mean-values ±SD. Statistical significance was analyzed among the samples by one-way-ANOVA and subsequently by Tukey–Kramer test (p < 0.005).

Going from `C=C(CCC(C)C1CC=C2C3=C(C(O)C(OC(C)=O)C21C)C1(C)CC(OC(C)=O)C(OC(C)=O)C(C)(C)C1CC3)C(C)C` (stereo not drawn) [Compound 5, integracide H] to `C=C(CCC(C)C1CC=C2C3=C(C(O)C(OC(C)=O)C21C)C1(C)CC(O)C(OC(C)=O)C(C)(C)C1CC3)C(C)C` (stereo not drawn) [Compound 3, integracide F], the IC50 rises from 1460 nM to 2760 nM (1.9-fold).

`C=C(CCC(C)C1(O)CCC2C3=C(C(O)C(OC(C)=O)C21C)C1(C)CC(O)C(OC(C)=O)C(C)(C)C1CC3)C(C)C` (stereo not drawn) [Compound 1, integracide L] and `C=C(CC[C@@H](C)[C@H]1CC=C2C3=C([C@@H](O)[C@H](OC(C)=O)[C@@]21C)[C@@]1(C)C[C@@H](O)[C@H](O)C(C)(C)[C@@H]1CC3)C(C)C` [Compound 2, integracide B] are within 1.5-fold of each other in IC50: 3450 nM for the first, 3970 nM for the second.

Compared with `C=C(CCC(C)C1CC=C2C3=C(C(O)C(OC(C)=O)C21C)C1(C)CC(O)C(OC(=O)CCCCCCCCCO)C(C)(C)C1CC3)C(C)C` (stereo not drawn) [Compound 4, integracide G], `C=C(CCC(C)C1CC=C2C3=C(C(O)C(OC(C)=O)C21C)C1(C)CC(O)C(OC(=O)c2ccc(O)cc2)C(C)(C)C1CC3)C(C)C` (stereo not drawn) [Compound 6, integracide J] is 1.7-fold higher in IC50: 1180 nM for the first, 2010 nM for the second. The first is the more potent here.
